Data: the supplement of paper PMC6045584
± gives the standard deviation of the averaged measurements.

Assays:
BMN-673 = compound: Cn1ncnc1[C@H]1c2n[nH]c(=O)c3cc(F)cc(c23)N[C@@H]1c1ccc(F)cc1 [BMN-673]; assay: surviving fraction relative to DMSO-only wells; higher = less growth inhibition; conditions: exposure time: 5 days
Summary of the method: (§1)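 A line counted only if its three screens reached replicate Pearson r >0.7 and median Z' >0.3. Tumour cells in log phase were seeded at 250–500 per well in 384-well plates and, after 24 hours, kept in continuous contact with inhibitors at 0.5, 1, 5, 10, 50, 100, 500 and 1000 nM for five days. Surviving fraction was taken from CellTiter-Glo luminescence relative to the median of DMSO-only wells.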

MK-1775 = compound: C=CCn1c(=O)c2cnc(Nc3ccc(N4CCN(C)CC4)cc3)nc2n1-c1cccc(C(C)(C)O)n1 [MK-1775]; assay: as above; conditions: exposure time: 5 days
Summary of the method: as §1

Test System	surviving fraction (BMN-673; 0.5 nM)	surviving fraction (BMN-673; 1 nM)	surviving fraction (BMN-673; 5 nM)	surviving fraction (BMN-673; 10 nM)	surviving fraction (BMN-673; 50 nM)	surviving fraction (BMN-673; 100 nM)	surviving fraction (BMN-673; 500 nM)	surviving fraction (BMN-673; 1000 nM)	surviving fraction (MK-1775; 0.5 nM)	surviving fraction (MK-1775; 1 nM)	surviving fraction (MK-1775; 5 nM)	surviving fraction (MK-1775; 10 nM)	surviving fraction (MK-1775; 50 nM)	surviving fraction (MK-1775; 100 nM)	surviving fraction (MK-1775; 500 nM)	surviving fraction (MK-1775; 1000 nM)
CCK81 LARGE INTESTINE	0.838 ± 0.087	0.781 ± 0.094	0.733 ± 0.091	0.619 ± 0.092	0.54 ± 0.034	0.552 ± 0.03	0.493 ± 0.079	0.406 ± 0.058								
G292 BONE	1.02 ± 0.058	0.933 ± 0.033	0.923 ± 0.041	0.846 ± 0.048	0.732 ± 0.045	0.698 ± 0.016	0.54 ± 0.035	0.459 ± 0.015	0.974 ± 0.034	0.946 ± 0.011	0.997 ± 0.018	1.03 ± 0.02	0.961 ± 0.032	0.821 ± 0.021	0.289 ± 0.014	0.216 ± 0.0088
HCC38 BREAST	1.06 ± 0.11	0.92 ± 0.2	0.778 ± 0.14	0.603 ± 0.11	0.585 ± 0.084	0.43 ± 0.065	0.301 ± 0.046	0.253 ± 0.031	1.33 ± 0.27	1.23 ± 0.048	1.33 ± 0.15	1.16 ± 0.072	0.773 ± 0.24	0.491 ± 0.065	0.0837 ± 0.006	0.069 ± 0.013
HCC70 BREAST	1.05 ± 0.11	1.05 ± 0.11	1.12 ± 0.069	0.977 ± 0.065	0.789 ± 0.054	0.657 ± 0.074	0.411 ± 0.1	0.341 ± 0.022	1.03 ± 0.065	1.02 ± 0.067	1.09 ± 0.033	1 ± 0.11	0.815 ± 0.062	0.281 ± 0.021	0.073 ± 0.0076	0.0593 ± 0.012
HMLE3 BREAST	1.08 ± 0.048	1.11 ± 0.053	1 ± 0.2	0.902 ± 0.1	0.644 ± 0.035	0.604 ± 0.03	0.339 ± 0.056	0.277 ± 0.036	0.955 ± 0.013	0.985 ± 0.066	1.04 ± 0.071	0.999 ± 0.02	0.992 ± 0.065	0.888 ± 0.061	0.448 ± 0.058	0.168 ± 0.026
HMT3552 BREAST	1.01 ± 0.064	0.943 ± 0.036	0.889 ± 0.047	0.775 ± 0.073	0.713 ± 0.063	0.574 ± 0.01	0.375 ± 0.026	0.264 ± 0.0075	1.05	1.02	0.977	1.01	0.542	0.142	0.069	0.072
HS578T BREAST	1.02 ± 0.035	1.14 ± 0.14	1.05 ± 0.091	0.958 ± 0.12	0.902 ± 0.075	0.841 ± 0.043	0.669 ± 0.076	0.61 ± 0.087	0.828 ± 0.085	0.84 ± 0.11	0.872 ± 0.087	0.782 ± 0.1	0.559 ± 0.091	0.354 ± 0.035	0.204 ± 0.0082	0.128 ± 0.0087
